The values below come from BindingDB's records for doi:10.1016/j.bmcl.2003.09.094 (Cv Therapeutics, 2003).

pKi: −log10 of the molar value.

This assay concerns the target Adenosine receptor A1 (hamster). Briefly: Binding affinity for adenosine A1 receptor determined using hamster DDT1 cell membranes with [3H]CCPA as radioligand.
With `CCNC(=S)OC[C@H]1OC(n2cnc3c(NC4CCOC4)ncnc32)[C@H](O)[C@@H]1O` (stereo partly drawn) [Ethyl-thiocarbamic acid (2R,3S,4R)-3,4-dihydroxy-5-{6-[(R)-(tetrahydro-furan-3-yl)amino]-purin-9-yl}-tetrahydro-furan-2-ylmethyl ester], the negative-log Ki (pKi) was 7.48.
`C=CCNC(=S)OC[C@H]1OC(n2cnc3c(NC4CCOC4)ncnc32)[C@H](O)[C@@H]1O` (stereo partly drawn) [Allyl-thiocarbamic acid (2R,3S,4R)-3,4-dihydroxy-5-{6-[(R)-(tetrahydro-furan-3-yl)amino]-purin-9-yl}-tetrahydro-furan-2-ylmethyl ester]: the pKi was 7.46.
Regarding `O=C(NC1CCCCC1)OC[C@H]1OC(n2cnc3c(NC4CCOC4)ncnc32)[C@H](O)[C@@H]1O` (stereo partly drawn) [Cyclohexyl-carbamic acid (2R,3S,4R)-3,4-dihydroxy-5-{6-[(R)-(tetrahydro-furan-3-yl)amino]-purin-9-yl}-tetrahydro-furan-2-ylmethyl ester], the pKi was 6.23.
In the case of `O=C(NC1CCC1)OC[C@H]1OC(n2cnc3c(NC4CCOC4)ncnc32)[C@H](O)[C@@H]1O` (stereo partly drawn) [Cyclobutyl-carbamic acid (2R,3S,4R)-3,4-dihydroxy-5-{6-[(R)-(tetrahydro-furan-3-yl)amino]-purin-9-yl}-tetrahydro-furan-2-ylmethyl ester] it was 6.51; in that of `C=CCNC(=O)OC[C@H]1OC(n2cnc3c(NC4CCOC4)ncnc32)[C@H](O)[C@@H]1O` (stereo partly drawn) [Allyl-carbamic acid (2R,3S,4R)-3,4-dihydroxy-5-{6-[(R)-(tetrahydro-furan-3-yl)amino]-purin-9-yl}-tetrahydro-furan-2-ylmethyl ester], 6.28; in that of `O=C(NC1CC1)OC[C@H]1OC(n2cnc3c(NC4CCOC4)ncnc32)[C@H](O)[C@@H]1O` (stereo partly drawn) [Cyclopropyl-carbamic acid (2R,3S,4R)-3,4-dihydroxy-5-{6-[(R)-(tetrahydro-furan-3-yl)amino]-purin-9-yl}-tetrahydro-furan-2-ylmethyl ester], 6.68.
For `O[C@@H]1[C@@H](COC(=S)NC2CC2)OC(n2cnc3c(NC4CCOC4)ncnc32)[C@@H]1O` (stereo partly drawn) [Cyclopropyl-thiocarbamic acid (2R,3S,4R)-3,4-dihydroxy-5-{6-[(R)-(tetrahydro-furan-3-yl)amino]-purin-9-yl}-tetrahydro-furan-2-ylmethyl ester] the value was 6.80; for `CC(C)NC(=O)OC[C@H]1OC(n2cnc3c(NC4CCOC4)ncnc32)[C@H](O)[C@@H]1O` (stereo partly drawn) [Isopropyl-carbamic acid (2R,3S,4R)-3,4-dihydroxy-5-{6-[(R)-(tetrahydro-furan-3-yl)amino]-purin-9-yl}-tetrahydro-furan-2-ylmethyl ester], 7.11; for `O[C@@H]1[C@@H](COC(=S)NC2CCCC2)OC(n2cnc3c(NC4CCOC4)ncnc32)[C@@H]1O` (stereo partly drawn) [Cyclopentyl-thiocarbamic acid (2R,3S,4R)-3,4-dihydroxy-5-{6-[(R)-(tetrahydro-furan-3-yl)amino]-purin-9-yl}-tetrahydro-furan-2-ylmethyl ester], 7.14.
`O=C(NCc1ccccc1)OC[C@H]1OC(n2cnc3c(NC4CCOC4)ncnc32)[C@H](O)[C@@H]1O` (stereo partly drawn) [Benzyl-carbamic acid (2R,3S,4R)-3,4-dihydroxy-5-{6-[(R)-(tetrahydro-furan-3-yl)amino]-purin-9-yl}-tetrahydro-furan-2-ylmethyl ester] showed a pKi of 5.74.
The compound `CCCNC(=S)OC[C@H]1OC(n2cnc3c(NC4CCOC4)ncnc32)[C@H](O)[C@@H]1O` (stereo partly drawn) [Propyl-thiocarbamic acid (2R,3S,4R)-3,4-dihydroxy-5-{6-[(R)-(tetrahydro-furan-3-yl)amino]-purin-9-yl}-tetrahydro-furan-2-ylmethyl ester] had a negative-log Ki (pKi) of 7.30.
With `CC(C)NC(=S)OC[C@H]1OC(n2cnc3c(NC4CCOC4)ncnc32)[C@H](O)[C@@H]1O` (stereo partly drawn) [Isopropyl-thiocarbamic acid (2R,3S,4R)-3,4-dihydroxy-5-{6-[(R)-(tetrahydro-furan-3-yl)amino]-purin-9-yl}-tetrahydro-furan-2-ylmethyl ester], the negative-log Ki (pKi) is 7.44.
In the case of `O[C@@H]1[C@@H](COC(=S)NCc2ccccc2)OC(n2cnc3c(NC4CCOC4)ncnc32)[C@@H]1O` (stereo partly drawn) [Benzyl-thiocarbamic acid (2R,3S,4R)-3,4-dihydroxy-5-{6-[(R)-(tetrahydro-furan-3-yl)amino]-purin-9-yl}-tetrahydro-furan-2-ylmethyl ester] it was 7.92; in that of `CNC(=S)OC[C@H]1OC(n2cnc3c(NC4CCOC4)nc(Cl)nc32)[C@H](O)[C@@H]1O` (stereo partly drawn) [Methyl-thiocarbamic acid (2R,3S,4R)-5-{2-chloro-6-[(R)-(tetrahydro-furan-3-yl)amino]-purin-9-yl}-3,4-dihydroxy-tetrahydro-furan-2-ylmethyl ester], 7.15; in that of `CN(C)C(=O)OC[C@H]1OC(n2cnc3c(NC4CCOC4)ncnc32)[C@H](O)[C@@H]1O` (stereo partly drawn) [Dimethyl-carbamic acid (2R,3S,4R)-3,4-dihydroxy-5-{6-[(R)-(tetrahydro-furan-3-yl)amino]-purin-9-yl}-tetrahydro-furan-2-ylmethyl ester], 6.62.
For `CCCCNC(=S)OC[C@H]1OC(n2cnc3c(NC4CCOC4)ncnc32)[C@H](O)[C@@H]1O` (stereo partly drawn) [Butyl-thiocarbamic acid (2R,3S,4R)-3,4-dihydroxy-5-{6-[(R)-(tetrahydro-furan-3-yl)amino]-purin-9-yl}-tetrahydro-furan-2-ylmethyl ester] the value was 6.80; for `O[C@@H]1[C@@H](COC(=S)NC2CCCCC2)OC(n2cnc3c(NC4CCOC4)ncnc32)[C@@H]1O` (stereo partly drawn) [Cyclohexyl-thiocarbamic acid (2R,3S,4R)-3,4-dihydroxy-5-{6-[(R)-(tetrahydro-furan-3-yl)amino]-purin-9-yl}-tetrahydro-furan-2-ylmethyl ester], 6.60; for `CN(C)C(=S)OC[C@H]1OC(n2cnc3c(NC4CCOC4)ncnc32)[C@H](O)[C@@H]1O` (stereo partly drawn) [Dimethyl-thiocarbamic acid (2R,3S,4R)-3,4-dihydroxy-5-{6-[(R)-(tetrahydro-furan-3-yl)amino]-purin-9-yl}-tetrahydro-furan-2-ylmethyl ester], 6.69.
For `O[C@@H]1[C@@H](COC(=S)NC2CCC2)OC(n2cnc3c(NC4CCOC4)ncnc32)[C@@H]1O` (stereo partly drawn) [Cyclobutyl-thiocarbamic acid (2R,3S,4R)-3,4-dihydroxy-5-{6-[(R)-(tetrahydro-furan-3-yl)amino]-purin-9-yl}-tetrahydro-furan-2-ylmethyl ester] the value was 6.83; for `CNC(=O)OC[C@H]1OC(n2cnc3c(NC4CCOC4)nc(Cl)nc32)[C@H](O)[C@@H]1O` (stereo partly drawn) [Methyl-carbamic acid (2R,3S,4R)-5-{2-chloro-6-[(R)-(tetrahydro-furan-3-yl)amino]-purin-9-yl}-3,4-dihydroxy-tetrahydro-furan-2-ylmethyl ester], 7.02.
Regarding `CCCNC(=O)OC[C@H]1OC(n2cnc3c(NC4CCOC4)ncnc32)[C@H](O)[C@@H]1O` (stereo partly drawn) [Propyl-carbamic acid (2R,3S,4R)-3,4-dihydroxy-5-{6-[(R)-(tetrahydro-furan-3-yl)amino]-purin-9-yl}-tetrahydro-furan-2-ylmethyl ester], the pKi is 6.63. Against the preceding compound, the pKi is 0.39 log units lower.
For `CCCCNC(=O)OC[C@H]1OC(n2cnc3c(NC4CCOC4)ncnc32)[C@H](O)[C@@H]1O` (stereo partly drawn) [Butyl-carbamic acid (2R,3S,4R)-3,4-dihydroxy-5-{6-[(R)-(tetrahydro-furan-3-yl)amino]-purin-9-yl}-tetrahydro-furan-2-ylmethyl ester] the value was 5.85; for `CCNC(=O)OC[C@H]1OC(n2cnc3c(NC4CCOC4)ncnc32)[C@H](O)[C@@H]1O` (stereo partly drawn) [Ethyl-carbamic acid (2R,3S,4R)-3,4-dihydroxy-5-{6-[(R)-(tetrahydro-furan-3-yl)amino]-purin-9-yl}-tetrahydro-furan-2-ylmethyl ester], 6.78; for `CCNC(=S)OC[C@H]1OC(n2cnc3c(NC4CCOC4)nc(Cl)nc32)[C@H](O)[C@@H]1O` (stereo partly drawn) [Ethyl-thiocarbamic acid (2R,3S,4R)-5-{2-chloro-6-[(R)-(tetrahydro-furan-3-yl)amino]-purin-9-yl}-3,4-dihydroxy-tetrahydro-furan-2-ylmethyl ester], 7.26.
In the case of `O=C(NC1CCCC1)OC[C@H]1OC(n2cnc3c(NC4CCOC4)nc(Cl)nc32)[C@H](O)[C@@H]1O` (stereo partly drawn) [Cyclopentyl-carbamic acid (2R,3S,4R)-5-{2-chloro-6-[(R)-(tetrahydro-furan-3-yl)amino]-purin-9-yl}-3,4-dihydroxy-tetrahydro-furan-2-ylmethyl ester] it was 6.65.
In the case of `CNC(=S)OC[C@H]1OC(n2cnc3c(NC4CCOC4)ncnc32)[C@H](O)[C@@H]1O` (stereo partly drawn) [Methyl-thiocarbamic acid (2R,3S,4R)-3,4-dihydroxy-5-{6-[(R)-(tetrahydro-furan-3-yl)amino]-purin-9-yl}-tetrahydro-furan-2-ylmethyl ester], the pKi is 7.35.

As usually defined, the pKi is −log10 of the Ki, conventionally taken in molar units.
